Patent publication US20230217875A1, “IN VITRO EMBRYO RESCUE” (priority 2020, published 2023)

Columns and labels:
[1] = tested on: Hybrid embryos of Capsella (Capsella rubella×Capsella grandiflora); experiment: in vitro embryo rescue of interspecies hybrids, embryo survival; format: cell-based; settings: for effect on embryo survival: MS medium supplemented with the sugar (FIG. 2A); for embryo appearance and growth: MS medium supplemented with the sugar, majority of embryos (FIGS. 2C-2H)
Procedure: (§1) Seeds of Arabidopsis and Capsella were surface sterilized (5% sodium hypochlorite, 0.05% Triton X-100) for 10 min, washed three times in sterile ddH2O and then plated on half Murashige and Skoog (MS) medium, i.e., MS medium as defined below but half the concentration of the included ingredients. After stratification for 3 day at 4° C., plants were grown in a growth room under long-day photoperiod (16 hours light and 8 hours darkness) at 22° C. Eight-day-old seedlings were transferred to soil and plants were grown in a growth room at 60% humidity and daily cycles of 16 hours light at 22° C. and 8 hours darkness at 18° C. For crosses, designated female flower buds were emasculated, and the pistils hand-pollinated at 2 days after emasculation.
(§2) • 70% Ethanol; • Sterilizing solution (5% sodium hypochlorite+0.01% (v/v) of Triton X-100 or TWEEN® 20); • Autoclaved water; • Murashige & Skoog (MS) medium (Murashige and Skoog 1962): MS basal salt mixture 4.4 g/L, 0.7% plant agar, pH 5.8 and vitamins (glycine 2 mg/I, myo-inositol 100 mg/I, nicotinic acid 0.5 mg/I, pyridoxine HCl 0.5 mg/I and thiamine HCl 0.1 mg/I); • Nitsch medium (Nitsch & Nitsch 1969): basal salt mixture 2.1 g/L, 0.7% plant agar, pH 5.8 and vitamins (biotin 0.05 mg/I, folic acid 0.5 mg/I, glycine 2 mg/I, myo-inositol 100 mg/I, nicotinic acid 5 mg/I, pyridoxine HCl 0.5 mg/I and thiamine HCl 0.5 mg/I);
(§3) Triploid Arabidopsis seeds were derived from crossing diploid Arabidopsis females with tetraploid Arabidopsis pollen donors. Interspecific hybrid Capsella seeds were derived from crossing Capsella rubella females with Capsella grandiflora pollen donors. Hybrid embryos were isolated at the torpedo stage, at around 8 to 9 days after pollination (DAP) for Arabidopsis and 9 to 10 DAP for Capsella.
Under a sterile hood, the siliques of the crosses were incubated for 30 s in 70% ethanol, 30 s in sterilizing solution and 30 s in sterile water. The siliques were placed on MS medium supplemented with 3% (w/v) trehalose overlaid with a filter paper and several drops of sterile liquid MS medium were added on the silique. Under a dissection microscope, the silique was opened with fine needles, and all seeds were transferred on the wet filter paper. The embryos were gently dissected and placed on the filter paper. During the dissection, the embryos and seeds should not become desiccated. The plates were sealed with Millipore tape and incubated under long-day photoperiod (16 hours light and 8 hours darkness) at 22° C.
(§4) After 5-7 days culture on MS medium with trehalose for Arabidopsis or 7-10 days for Capsella, viable embryos could be recognized by their green color and increased size that corresponded to the size of embryos at the bent cotyledon stage (FIG. 1J). Viable embryos were then transferred to Nitsch medium containing lower concentrations of trehalose, 1.5% (w/v) for Arabidopsis, 3% (w/v) for Capsella. Embryos were transferred from MS medium to Nitsch medium after two weeks. Transfer to Nitsch medium reduced vitrification, which is a frequently occurring phenomenon in tissue-cultured plants causing excessive hydration of tissues and reducing survival rate. Continued growth on MS medium for 3 weeks caused vitrification in Arabidopsis and Capsella seedlings (FIGS. 1L, 2I), but this phenomenon was suppressed by transfer to Nitsch medium (FIGS. 1M, 2J). After about two weeks of incubation, the initiation of roots could be observed (FIG. 1K) and the plantlets could be transferred to soil and continued to grow under long-day photoperiod (16 h light/8 h dark) at 22° C. in a growth room.
To rescue interspecific hybrids of Capsella, the protocol was the same as above for A. thaliana but with minor changes for the trehalose concentration. Hybrid embryos of Capsella (Capsella rubella×Capsella grandiflora) were dissected at the torpedo stage under a stereomicroscope under sterile conditions on a laminar flow bench. […]

[2] = tested on: Triploid Arabidopsis thaliana (Col-0) embryos; experiment: in vitro embryo rescue of interploidy hybridization (Col 2x x Col 4x), embryo survival; format: cell-based; settings: for embryo appearance and growth: MS medium supplemented with the sugar, majority of triploid embryos (FIGS. 1C-1H)
Procedure: as §1, §2, §3
Under a sterile hood, the siliques of the crosses were incubated for 30 s in 70% ethanol, 30 s in sterilizing solution and 30 s in sterile water. […] Under a dissection microscope, the silique was opened with fine needles, and all seeds were transferred on the wet filter paper. The embryos were gently dissected and placed on the filter paper. During the dissection, the embryos and seeds should not become desiccated. The plates were sealed with Millipore tape and incubated under long-day photoperiod (16 hours light and 8 hours darkness) at 22° C.
as §4, with “room. […]” for “room.”

[3] = tested on: rice triploid embryos; experiment: rescue of triploid rice embryos, embryo survival; format: cell-based, Oryza sativa L. cv. Suitou nourin 8
Procedure: To obtain triploids of cultivated rice (Oryza sativa L. cv. Suitou nourin 8), diploid plants (JP9838) were emasculated and pollinated with pollen from tetraploid plants (JP7525). Triploid hybrid embryos were dissected under sterile conditions at 10-12 days after pollination (DAP) under a stereomicroscope. The isolated embryos were cultured in vitro on MS medium supplemented with 1.5% (w/v, 43.8 mM) trehalose together with sucrose (1.5%) and compared to MS medium supplemented with only sucrose (3%). […] The viable triploid embryos were transferred to MS medium containing lower concentrations of trehalose (0.75% w/v) together with 2.25% (w/v) sucrose for two weeks, until the initiation of roots could be observed (FIG. 3F). The plantlets were transferred to soil and their ploidy levels were validated by flow cytometry.
Cultivated rice (Oryza sativa L. cv. Suitou nourin 8, diploid, JP9838, and cv. Suitou nourin 8, tetraploid, JP7525) seeds were obtained from the National Institute of Agrobiological Sciences in Japan (http://www.gene.affrc.go.jp). Rice seeds were grown on soil and cultivated in a phytotron. Cultivating conditions were 14 h light and 10 h dark at 30° C./21° C. with a constant humidity of 80% and light intensity of 400 μmol per m^−2 s^−1. For crossing, designated diploid plants were emasculated and pollination was performed immediately after emasculation.
Under a sterile hood, immature triploid rice seeds at 10-12 DAP were dehusked using a pair of tweezers and sterilized for 2 min in 70% ethanol, followed by 15 min in 5% sodium hypochlorite with gentle mixing, 2 min in sterile water. The seeds were placed on MS medium supplemented with 1.5% (w/v) trehalose together with 1.5% (w/v) sucrose overlaid with a filter paper. Under a dissection microscope, the seed coat was removed with fine needles, and dissected embryos were transferred on the wet filter paper. During the dissection, the embryos should not become desiccated. The plates were sealed with Millipore tape and incubated under long-day photoperiod (16 hours light and 8 hours darkness) at 22° C. After 5-7 days of culture on MS medium with trehalose, viable embryos could be recognized by their light green color and increased size (FIG. 3E), compared to aborted embryos with dark brown color (FIG. 3D). Viable embryos were then transferred to MS medium containing lower concentrations of trehalose, 0.75% (w/v) together with 2.25% (w/v) sucrose. After about two weeks of incubation, the initiation of roots could be observed (FIG. 3F) and the plantlets could be transferred to soil and grows in a phytotron.

[4] = MS medium with only sucrose (3%)

SMILES	effect on embryo survival [1]	embryo appearance and growth [1]	embryo appearance and growth [2]	embryo appearance and growth [3, 4]	embryos survived [3, 4]	hybrid embryos rescued (survival rate) ([1]; MS medium supplemented with 3% (w/v) sugar, 14 days (FIG. 2A)) [%]	highest survival rate ([1]; plates containing 6% trehalose, 14 days (FIG. 2B))	embryo survival rate ([2]; MS medium supplemented with 3% (w/v) sugar, embryos at torpedo stage, 14 days of in vitro culture (FIG. 1A))	highest survival rate ([2]; plates containing 2% (w/v) trehalose, 14 days (FIG. 1B))	embryos survived ([3]; MS medium with 1.5% (w/v) trehalose together with sucrose (1.5%), after one week of culture)	embryo appearance ([3]; MS medium with 1.5% trehalose together with 1.5% sucrose, after one week)
O=C(CO)[C@@H](O)[C@H](O)[C@H](O)CO [fructose]	did not improve embryo survival	turned from light green to white and growth was arrested	turned from light green to white and growth was arrested								
O=C[C@H](O)[C@@H](O)[C@@H](O)[C@H](O)CO [galactose]	did not improve embryo survival	turned from light green to white and growth was arrested	turned from light green to white and growth was arrested								
OC[C@H]1O[C@@](CO)(O[C@H]2O[C@H](CO)[C@@H](O)[C@H](O)[C@H]2O)[C@@H](O)[C@@H]1O [sucrose]	did not improve embryo survival	turned from light green to white and growth was arrested	turned from light green to white and growth was arrested	arrested growth and turned dark brown	none						
OC[C@H]1O[C@H](O[C@H]2O[C@H](CO)[C@@H](O)[C@H](O)[C@H]2O)[C@H](O)[C@@H](O)[C@@H]1O [trehalose]						80	over 90%	over 70%	over 90%	Around 30%	turning light green
